Measurements from patent US10550105B2 (Ribon Therapeutics Inc., priority 2018, dated 2020).

Target: PARP7 (Homo sapiens (Human), UniProt Q7Z3E1)
Assay: Enzymatic assay for inhibition of PARP7: TR-FRET displacement of biotinylated Probe A from the TIPARP active site
Assay type: binding
Conditions: Table A-1
Method in brief: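 Compound dose-response series were incubated with TIPARP and biotinylated Probe A, with a final 30 min step at 25 °C. TR-FRET was read at 320 nm excitation, 615/665 nm emission and 90 μs delay, using the 665/615 ratio to measure complex formation. % inhibition was fitted with a floating or fixed (1) Hill coefficient.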

PARP7, sequence (Q7Z3E1 whole entry): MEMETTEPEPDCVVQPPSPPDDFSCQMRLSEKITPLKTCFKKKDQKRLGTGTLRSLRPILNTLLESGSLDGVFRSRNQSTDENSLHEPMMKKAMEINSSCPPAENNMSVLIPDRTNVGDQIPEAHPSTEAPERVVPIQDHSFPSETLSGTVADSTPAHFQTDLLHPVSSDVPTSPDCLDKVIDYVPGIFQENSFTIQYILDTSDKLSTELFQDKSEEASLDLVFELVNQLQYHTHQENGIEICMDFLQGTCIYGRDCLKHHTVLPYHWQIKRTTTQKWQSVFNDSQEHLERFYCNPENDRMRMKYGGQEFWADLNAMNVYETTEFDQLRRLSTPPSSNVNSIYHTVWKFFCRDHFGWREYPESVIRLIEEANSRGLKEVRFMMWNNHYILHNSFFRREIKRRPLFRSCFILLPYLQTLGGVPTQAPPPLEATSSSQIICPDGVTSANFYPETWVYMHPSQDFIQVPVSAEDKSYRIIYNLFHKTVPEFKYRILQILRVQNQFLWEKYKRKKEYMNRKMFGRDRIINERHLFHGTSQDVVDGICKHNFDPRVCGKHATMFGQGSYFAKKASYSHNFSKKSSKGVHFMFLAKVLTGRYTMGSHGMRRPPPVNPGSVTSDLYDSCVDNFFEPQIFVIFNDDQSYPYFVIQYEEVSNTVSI

IC50 [nM]	Compound
< 100	O=C(CCOC[C@H](Nc1cn[nH]c(=O)c1C(F)(F)F)[C@@H]1CCOC1)N1CCN(c2ncc(C(F)(F)F)cn2)CC1 [Example 614 Isomer D, 5-(((R)-2-(3-Oxo-3-(4-(5-(trifluoromethyl)pyrimidin-2-yl)piperazin-1-yl)propoxy)-1-((S)-tetrahydrofuran-3-yl)ethyl)amino)-4-(trifluoromethyl)pyridazin-3(2H)-one]
100 to 1000	CC1c2ccccc2CN1c1cn[nH]c(=O)c1C(F)(F)F (stereo not shown) [Example 249, 5-(1-Methylisoindolin-2-yl)-4-(trifluoromethyl)pyridazin-3(2H)-one]
100 to 1000	C[C@H](OCCC(=O)N1CCN(c2ccc(C#N)cn2)CC1)[C@@H]1CCCN1c1cn[nH]c(=O)c1C(F)(F)F [Example 140B, 6-(4-[3-[(1S)-1-[(2S)-1-[6-oxo-5-(trifluoromethyl)-1,6-dihydropyridazin-4-yl]pyrrolidin-2-yl]ethoxy]propanoyl]piperazin-1-yl)pyridine-3-carbonitrile]
< 100	N#Cc1ccc(N2CCN(C(=O)N3CC(OC[C@@H]4CCCN4c4cn[nH]c(=O)c4C(F)(F)F)C3)CC2)nc1 [Example 125, 6-[4-(3-[[(2S)-1-[6-oxo-5-(trifluoromethyl)-1,6-dihydropyridazin-4-yl]pyrrolidin-2-yl]methoxy]azetidine-1-carbonyl)piperazin-1-yl]pyridine-3-carbonitrile]
< 100	N#Cc1ccc(N2CC3CN(C(=O)CCOC[C@@H]4CCCN4c4cn[nH]c(=O)c4C(F)(F)F)CC3C2)nc1 (stereo in doubt) [Example 113, (S)-6-[5-(3-[[1-[6-oxo-5-(trifluoromethyl)-1,6-dihydropyridazin-4-yl]pyrrolidin-2-yl]methoxy]propanoyl)-octahydropyrrolo[3,4-c]pyrrol-2-yl]pyridine-3-carbonitrile]
< 100	N#Cc1cnc(N2CCN(C(=O)c3cccc(OC[C@@H]4c5ccccc5CN4c4cn[nH]c(=O)c4C(F)(F)F)c3)CC2)nc1 [Example 365, (S)-2-(4-(3-((2-(6-oxo-5-(trifluoromethyl)-1,6-dihydropyridazin-4-yl)isoindolin-1-yl)methoxy)benzoyl)piperazin-1-yl)pyrimidine-5-carbonitrile]
100 to 1000	N#Cc1ccc(N2CCN(C(=O)CNCCCOc3cn[nH]c(=O)c3C(F)(F)F)CC2)nc1 [Example 524]
< 100	C[C@@H](COCCC(=O)N1CCN(c2ncc(F)cn2)CC1)Nc1cn[nH]c(=O)c1C(F)(F)F [Example 679, (S)-5-((1-(3-(4-(5-Fluoropyrimidin-2-yl)piperazin-1-yl)-3-oxopropoxy)propan-2-yl)amino)-4-(trifluoromethyl)pyridazin-3(2H)-one]
< 100	C[C@@H](COCCC(=O)N1CCN(c2ccc(C#N)cn2)CC1)Oc1cn[nH]c(=O)c1Br [Example 650, (S)-6-(4-(3-(2-((5-Bromo-6-oxo-1,6-dihydropyridazin-4-yl)oxy)propoxy)propanoyl)piperazin-1-yl)nicotinonitrile]
100 to 1000	Cc1c(N2Cc3ccc(OCCO)cc3C2)cn[nH]c1=O [Example 188, 5-(5-(2-Hydroxyethoxy)isoindolin-2-yl)-4-methylpyridazin-3(2H)-one]
< 100	O=c1[nH]ncc(N2Cc3ccc(OCCO)cc3C2)c1C(F)(F)F [Example 177, 5-(5-(2-Hydroxyethoxy)isoindolin-2-yl)-4-(trifluoromethyl)pyridazin-3(2H)-one]
< 100	CC(=O)NCCOc1cccc2c1CN(c1cn[nH]c(=O)c1C(F)(F)F)C2 [Example 211, N-(2-((2-(6-Oxo-5-(trifluoromethyl)-1,6-dihydropyridazin-4-yl)isoindolin-4-yl)oxy)ethyl)acetamide]
< 100	N#Cc1ccc(N2CCN(C(=O)CCOC[C@@H]3C[C@@H](N)CN3c3cn[nH]c(=O)c3C(F)(F)F)CC2)nc1 [Example 486, 6-(4-(3-(((2S,4R)-4-Amino-1-(6-oxo-5-(trifluoromethyl)-1,6-dihydropyridazin-4-yl)pyrrolidin-2-yl)methoxy)propanoyl)piperazin-1-yl)nicotinonitrile]
< 100	O=C(C[C@@H]1CC[C@H]([C@@H]2CCCN2c2cn[nH]c(=O)c2C(F)(F)F)O1)N1CCN(c2ncc(C(F)(F)F)cn2)CC1 [Example 149C, 5-[(2S)-2-[(2R,5S)-5-(2-oxo-2-[4-[5-(trifluoromethyl)pyrimidin-2-yl]piperazin-1-yl]ethyl)oxolan-2-yl]pyrrolidin-1-yl]-4-(trifluoromethyl)-2,3-dihydropyridazin-3-one]
100 to 1000	CC(=O)N1CCN(C(=O)c2cccc(OC[C@@H]3CCCN3c3cn[nH]c(=O)c3C(F)(F)F)c2)CC1 [Example 449, (S)-5-(2-((3-(4-Acetylpiperazine-1-carbonyl)phenoxy)methyl)pyrrolidin-1-yl)-4-(trifluoromethyl)pyridazin-3(2H)-one]
< 100	O=C(CCOC[C@@H](CCO)Oc1cn[nH]c(=O)c1C(F)(F)F)N1CCN(c2ncc(Cl)cn2)CC1 [Example 704, (R)-5-((1-(3-(4-(5-Chloropyrimidin-2-yl)piperazin-1-yl)-3-oxopropoxy)-4-hydroxybutan-2-yl)oxy)-4-(trifluoromethyl)pyridazin-3(2H)-one]

IC50 [nM]	Compound
100 to 1000	C[C@H](COCCC(=O)N1CCN(c2ccc(Cl)cn2)CC1)Oc1cn[nH]c(=O)c1C(F)(F)F (single isomer, unassigned) [Example 539 Isomer D]
≥ 1000	N#Cc1ccc(N2CCN(C(=O)CCOC[C@H](Nc3cn[nH]c(=O)c3C(F)(F)F)c3ccncc3)CC2)nc1 [Example 527B, 6-(4-[3-[(2R)-2-[[6-Oxo-5-(trifluoromethyl)-1,6-dihydropyridazin-4-yl]amino]-2-(pyridin-4-yl)ethoxy]propanoyl]piperazin-1-yl)pyridine-3-carbonitrile]
< 100	C[C@@H](COCCC(=O)N1CCN(c2ncc(Cl)cn2)CC1)Oc1cn[nH]c(=O)c1C(F)(F)F (single isomer, unassigned) [Example 543 Isomer A]
< 100	CC(=O)N(C)CCOc1cccc2c1CN(c1cn[nH]c(=O)c1C(F)(F)F)C2 [Example 224, N-Methyl-N-(2-((2-(6-oxo-5-(trifluoromethyl)-1,6-dihydropyridazin-4-yl)isoindolin-4-yl)oxy)ethyl)acetamide]
< 100	N#Cc1c(OCCOCCC(=O)N2CCN(c3ncc(Cl)cn3)CC2)cn[nH]c1=O [Example 552, 5-(2-[3-[4-(5-Chloropyrimidin-2-yl)piperazin-1-yl]-3-oxopropoxy]ethoxy)-3-oxo-2,3-dihydropyridazine-4-carbonitrile]
< 100	O=C(C[C@H]1CC[C@@H]([C@@H]2CCCN2c2cn[nH]c(=O)c2C(F)(F)F)O1)N1CCN(c2ncc(C(F)(F)F)cn2)CC1 [Example 149B, 5-[(2S)-2-[(2S,5R)-5-(2-oxo-2-[4-[5-(trifluoromethyl)pyrimidin-2-yl]piperazin-1-yl]ethyl)oxolan-2-yl]pyrrolidin-1-yl]-4-(trifluoromethyl)-2,3-dihydropyridazin-3-one]
≥ 1000	CC(C)c1c(N2Cc3cccc(OCCO)c3C2)cn[nH]c1=O [Example 243, 5-(4-(2-Hydroxyethoxy)isoindolin-2-yl)-4-isopropylpyridazin-3(2H)-one]
< 100	O=c1[nH]ncc(N2Cc3cc(F)c(OCC4CCCN4)cc3C2)c1C(F)(F)F (stereo not shown) [Example 48, 5-[5-fluoro-6-(pyrrolidin-2-ylmethoxy)-2,3-dihydro-1H-isoindol-2-yl]-4-(trifluoromethyl)-2,3-dihydropyridazin-3-one]
< 100	C[C@@H](COCCS(=O)(=O)N1CCN(c2ncc(C(F)(F)F)s2)CC1)Nc1cn[nH]c(=O)c1Br [Example 732, (S)-4-Bromo-5-((1-(2-((4-(5-(trifluoromethyl)thiazol-2-yl)piperazin-1-yl)sulfonyl)ethoxy)propan-2-yl)amino)pyridazin-3(2H)-one]
< 100	O=c1[nH]ncc(N2Cc3cccc(OCC4CCCOC4)c3C2)c1C(F)(F)F (stereo not shown) [Example 199, 5-(4-((Tetrahydro-2H-pyran-3-yl)methoxy)isoindolin-2-yl)-4-(trifluoromethyl)pyridazin-3(2H)-one]
< 100	O=C(c1cncc(OC[C@@H]2c3ccccc3CN2c2cn[nH]c(=O)c2C(F)(F)F)c1)N1CCN(c2ncc(C(F)(F)F)cn2)CC1 [Example 392, (S)-4-(Trifluoromethyl)-5-(1-(((5-(4-(5-(trifluoromethyl)pyrimidin-2-yl)piperazine-1-carbonyl)pyridin-3-yl)oxy)methyl)isoindolin-2-yl)pyridazin-3(2H)-one]
< 100	O=C(CCOC[C@H](CO)Nc1cn[nH]c(=O)c1C(F)(F)F)N1CCN(c2ncc(Cl)cn2)CC1 [Example 665, (S)-5-((1-(3-(4-(5-Chloropyrimidin-2-yl)piperazin-1-yl)-3-oxopropoxy)-3-hydroxypropan-2-yl)amino)-4-(trifluoromethyl)pyridazin-3(2H)-one]
≥ 1000	O=C(c1cncc(OC[C@H]2c3ccccc3CN2c2cn[nH]c(=O)c2C(F)(F)F)c1)N1CCN(c2ccc(F)cn2)CC1 [Example 387, (R)-5-(1-(((5-(4-(5-Fluoropyridin-2-yl)piperazine-1-carbonyl)pyridin-3-yl)oxy)methyl)isoindolin-2-yl)-4-(trifluoromethyl)pyridazin-3(2H)-one]
100 to 1000	CN(CCC(=O)N1CCN(c2ccc(C#N)cn2)CC1)C[C@H]1c2ccccc2CN1c1cn[nH]c(=O)c1Cl [Example 430, (R)-6-(4-(3-(((2-(5-Chloro-6-oxo-1,6-dihydropyridazin-4-yl)isoindolin-1-yl)methyl)(methyl)amino)propanoyl)piperazin-1-yl)nicotinonitrile]
< 100	N#Cc1ccc(N2CCN(C(=O)C[C@H]3CC[C@@H]([C@@H]4c5ccccc5CN4c4cn[nH]c(=O)c4C(F)(F)F)O3)CC2)nc1 (single isomer, unassigned) [Example 612 Isomer B]
